Marks after values point to notes of the source that are not given here. Non-standard residues stand in square brackets, D forms with d. Residues, ends and D or L forms follow the SMILES beside them. d2Nal = N[C@H](Cc1ccc2ccccc2c1)C(=O)O; d(hLeu) = CC(C)CC[C@@H](N)C(=O)O; dNva = CCC[C@@H](N)C(=O)O
How the values were obtained:
[1] = system: Pseudomonas aeruginosa ATCC 27853; assay: Injectable formulations on mice infected with peritonitis; type: in vivo, ICR mice; conditions: 1 mg/kg via tail vein, twice a day for 3 days, n = 10; for Average survival times (Days): observed for 14 d
How it was run: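 ICR mice of both sexes (10 per group) infected intraperitoneally with 0.2 mL P. aeruginosa ATCC 27853 at 1×10^9 CFU/mL. Injectable formulations dosed by body weight via tail vein twice daily for 3 days; deaths and survival time recorded over 14 d.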

rabbit red blood cells = type: cell-based; conditions: red cells of rabbit, 1 h
[2] = system: Escherichia coli ATCC 25922; assay: Oral formulations on mice with systemic bacterial infection; type: in vivo, ICR mice; conditions: 1 mg/kg gavage, three times a day for 7 days, n = 10; for Average survival times (Days): observed for 14 d
How it was run: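 ICR mice of both sexes, 10 per group, infected i.p. with 0.2 mL E. coli ATCC 25922 at 1×10^7 CFU/mL. Compounds gavaged by body weight immediately after infection, three times daily for 7 days; deaths and survival time recorded over 14 d observation.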

Structure (SMILES)	Number of mice that died on each day after infection: day 1 [1]	Number of mice that died on each day after infection: day 2 [1]	Number of mice that died on each day after infection: day 3 [1]	Number of mice that died on each day after infection: day 4 [1]	Number of mice that died on each day after infection: day 5 [1]	Average survival times (Days) [1]	MHC (minimum hemolytic concentration, lowest concentration causing 10% hemolysis) (rabbit red blood cells)	Number of mice that died on each day after infection: day 4 [2]	Number of mice that died on each day after infection: day 5 [2]	Number of mice that died on each day after infection: day 6 [2]	Number of mice that died on each day after infection: day 7 [2]	Number of mice that died on each day after infection: day 8 [2]	Average survival times (Days) [2]
CCC[C@@H](NC(=O)[C@@H](CCCCN)NC(=O)[C@@H](CCCNC(=N)N)NC(C)=O)C(=O)N[C@H](CCC)C(=O)N[C@H](Cc1ccc2ccccc2c1)C(=O)N[C@H](CCCNC(=N)N)C(=O)N[C@H](CCC)C(=O)N[C@H](CCCCN)C(=O)N[C@H](Cc1ccc2ccccc2c1)C(=O)N[C@H](CCCNC(=N)N)C(=O)N[C@H](CCCCN)C(N)=O [LV-13] (Ac-[dR][dK][dNva][dNva][d2Nal][dR][dNva][dK][d2Nal][dR][dK]-NH2)	3 Mouse	1 Mouse	0 Mouse	1 Mouse	0 Mouse	7.9** Days	>1000 µg/mL	3 Mouse	1 Mouse	1 Mouse	0 Mouse	0 Mouse	9.3** Days
CC(=O)N[C@H](CCCNC(=N)N)C(=O)N[C@H](CCCCN)C(=O)N[C@H](CCC(C)C)C(=O)N[C@H](CCC(C)C)C(=O)N[C@H](Cc1ccc2ccccc2c1)C(=O)N[C@H](CCCNC(=N)N)C(=O)N[C@H](CCC(C)C)C(=O)N[C@H](CCCCN)C(=O)N[C@H](Cc1ccc2ccccc2c1)C(=O)N[C@H](CCCNC(=N)N)C(=O)N[C@H](CCCCN)C(N)=O [LV-14] (Ac-[dR][dK][d(hLeu)][d(hLeu)][d2Nal][dR][d(hLeu)][dK][d2Nal][dR][dK]-NH2)	1 Mouse	2 Mouse	0 Mouse	1 Mouse	1 Mouse	8.4** Days	>1000 µg/mL	1 Mouse	2 Mouse	1 Mouse	0 Mouse	1 Mouse	9.8** Days
CC(=O)N[C@H](CCCNC(=N)N)C(=O)N[C@H](CCCCN)C(=O)N[C@H](C)C(=O)N[C@H](C)C(=O)N[C@H](Cc1ccc2ccccc2c1)C(=O)N[C@H](CCCNC(=N)N)C(=O)N[C@H](C)C(=O)N[C@H](CCCCN)C(=O)N[C@H](Cc1ccc2ccccc2c1)C(=O)N[C@H](CCCNC(=N)N)C(=O)N[C@H](CCCCN)C(N)=O [LV-15] (Ac-[dR][dK][dA][dA][d2Nal][dR][dA][dK][d2Nal][dR][dK]-NH2)	1 Mouse	2 Mouse	0 Mouse	2 Mouse	0 Mouse	8.3** Days	>1000 µg/mL	1 Mouse	3 Mouse	0 Mouse	1 Mouse	0 Mouse	9.6** Days

From patent publication US20250304620A1, “ANTIMICROBIAL PEPTIDE AND APPLICATION THEREOF” (priority 2023, published 2025)
